# System: HCV 1b-Con1 replicon
# Assay: HCV 1b-Con1 replicon assay in the presence of 5% FBS
# Type: cell-based
# Conditions: Hepatitis C virus
row,Structure (SMILES),EC50 [nM]
1,"COC(=O)N[C@H](C(=O)N1CCC[C@H]1c1nc2cc([C@H]3CC[C@H](c4cc5nc([C@@H]6CCCN6C(=O)[C@@H](NC(=O)OC)[C@@H](C)OC)[nH]c5cc4F)N3c3cc(F)c(N4CCC(C(C)(C)C)CC4)c(F)c3)c(F)cc2[nH]1)[C@@H](C)OC [Example 6.13, methyl {(2S,3R)-1-[(2S)-2-{5-[(2R,5R)-1-[4-(4-tert-butylpiperidin-1-yl)-3,5-difluorophenyl]-5-(6-fluoro-2-{(2S)-1-[N-(methoxycarbonyl)-O-methyl-L-threonyl]pyrrolidin-2-yl}-1H-benzimidazol-5-yl)pyrrolidin-2-yl]-6-fluoro-1H-benzimidazol-2-yl}pyrrolidin-1-yl]-3-methoxy-1-oxobutan-2-yl}carbamate]",< 0.1
2,"COC(=O)N[C@H](C(=O)N1CCC[C@H]1c1nc2cc([C@H]3CC[C@H](c4cc5nc([C@@H]6CCCN6C(=O)[C@@H](NC(=O)OC)C6CCOCC6)[nH]c5cc4F)N3c3cc(F)c(N4CCC(C(C)(C)C)CC4)c(F)c3)c(F)cc2[nH]1)C1CCOCC1 [Example 6.14, dimethyl ({(2R,5R)-1-[4-(4-tert-butylpiperidin-1-yl)-3,5-difluorophenyl]pyrrolidine-2,5-diyl}bis{(6-fluoro-1H-benzimidazole-5,2-diyl)(2S)pyrrolidine-2,1-diyl [(1S)-2-oxo-1-(tetrahydro-2H-pyran-4-yl)ethane-2,1-diyl]}) biscarbamate]",< 0.1
3,"COC(=O)N[C@H](C(=O)N1CCC[C@H]1c1nc2cc([C@H]3CC[C@H](c4cc5nc([C@@H]6CCCN6C(=O)[C@@H](NC(=O)OC)[C@@H](C)OC)[nH]c5cc4F)N3c3cc(F)c(N4CCN(c5ccc(C(F)(F)F)cc5)CC4)c(F)c3)c(F)cc2[nH]1)[C@@H](C)OC [Example 6.15, methyl {(2S,3R)-1-[(2S)-2-{5-[(2R,5R)-1-(3,5-difluoro-4-{4-[4-(trifluoromethyl)phenyl]piperazin-1-yl}phenyl)-5-(6-fluoro-2-{(2S)-1-[N-(methoxycarbonyl)-O-methyl-L-threonyl]pyrrolidin-2-yl}-1H-benzimidazol-5-yl)pyrrolidin-2-yl]-6-fluoro-1H-benzimidazol-2-yl}pyrrolidin-1-yl]-3-methoxy-1-oxobutan-2-yl}carbamate]",< 0.1
4,"COC(=O)N[C@H](C(=O)N1CCC[C@H]1c1nc2cc(F)c([C@H]3CC[C@H](c4cc5[nH]c([C@@H]6CCCN6C(=O)[C@@H](NC(=O)OC)C(C)C)nc5cc4F)N3c3cc(F)c(N4CCN(c5c(F)cccc5F)CC4)c(F)c3)cc2[nH]1)C(C)C [Example 6.16, methyl {(2S)-1-[(2S)-2-{6-[(2R,5R)-1-{4-[4-(2,6-difluorophenyl)piperazin-1-yl]-3,5-difluorophenyl}-5-{5-fluoro-2-[(2S)-1-{(2S)-2-[(methoxycarbonyl)amino]-3-methylbutanoyl}pyrrolidin-2-yl]-1H-benzimidazol-6-yl}pyrrolidin-2-yl]-5-fluoro-1H-benzimidazol-2-yl}pyrrolidin-1-yl]-3-methyl-1-oxobutan-2-yl}carbamate]",< 0.1
5,"COC(=O)N[C@H](C(=O)N1CCC[C@H]1c1nc(-c2ccc(-c3ccn(-c4ccc(-c5c[nH]c([C@@H]6CCCN6C(=O)[C@@H](NC(=O)OC)C(C)C)n5)cc4)c3-c3ccc(C(C)(C)C)cc3)cc2)c[nH]1)C(C)C [Example 7.1, methyl {(2S)-1-[(2S)-2-(4-{4-[2-(4-tert-butylphenyl)-1-(4-{2-[(2S)-1-{(2S)-2-[(methoxycarbonyl)amino]-3-methylbutanoyl}pyrrolidin-2-yl]-1H-imidazol-4-yl}phenyl)-1H-pyrrol-3-yl]phenyl}-1H-imidazol-2-yl)pyrrolidin-1-yl]-3-methyl-1-oxobutan-2-yl}carbamate]",< 0.1
6,"COC(=O)N[C@H](C(=O)N1CCC[C@H]1C(=O)Nc1ccc(C2CC[C@@H](c3ccc(NC(=O)[C@@H]4CCCN4C(=O)[C@@H](NC(=O)OC)C(C)C)cc3)N2c2cc(F)c(N3CCC(c4ccccc4)CC3)c(F)c2)cc1)C(C)C (stereo partly drawn) [Example 8, dimethyl ({(2S)-1-[3,5-difluoro-4-(4-phenylpiperidin-1-yl)phenyl]pyrrolidine-2,5-diyl}bis{4,1-phenylenecarbamoyl(2S)pyrrolidine-2,1-diyl[(2S)-3-methyl-1-oxobutane-1,2-diyl]})biscarbamate]",< 0.1
7,"COC(=O)N[C@H](C(=O)N1CCC[C@H]1c1nc(-c2ccc([C@H]3CC[C@H](c4ccc(-c5c[nH]c([C@@H]6CCCN6C(=O)[C@@H](NC(=O)OC)C(C)C)n5)cc4)N3c3cc(F)c(N4CCC(c5ccccc5)CC4)c(F)c3)cc2)c[nH]1)C(C)C [Example 9, methyl {(2S)-1-[(2S)-2-(4-{4-[(2R,5R)-1-[3,5-difluoro-4-(4-phenylpiperidin-1-yl)phenyl]-5-(4-{2-[(2S)-1-{(2S)-2-[(methoxycarbonyl)amino]-3-methylbutanoyl}pyrrolidin-2-yl]-1H-imidazol-4-yl}phenyl)pyrrolidin-2-yl]phenyl}-1H-imidazol-2-yl)pyrrolidin-1-yl]-3-methyl-1-oxobutan-2-yl}carbamate]",< 0.1
8,"COC(=O)N[C@H](C(=O)N1[C@H](c2nc3cc([C@H]4CC[C@H](c5ccc6[nH]c([C@@H]7C[C@@H]8CCC[C@@H]8N7C(=O)[C@@H](NC(=O)OC)C7CCOCC7)nc6c5)N4c4cc(F)c(N5CCCCC5)c(F)c4)ccc3[nH]2)C[C@@H]2CCC[C@@H]21)C(C)C [Example 10.1, methyl [(1S)-2-[(2S,3aS,6aS)-2-{5-[(2R,5R)-1-[3,5-difluoro-4-(piperidin-1-yl)phenyl]-5-{2[(2S,3aS,6aS)-1-{(2S)-2-[(methoxycarbonyl)amino]-3-methylbutanoyl}octahydrocyclopenta[b]pyrrol-2-yl]-1H-benzimidazol-5-yl}pyrrolidin-2-yl]-1H-benzimidazol-2-yl}hexahydrocyclopenta[b]pyrrol-1(2H)-yl]-2-oxo-1-(tetrahydro-2H-pyran-4-yl)ethyl]carbamate]",< 0.1
9,"COC(=O)N[C@H](C(=O)N1[C@H](c2nc3cc([C@H]4CC[C@H](c5ccc6[nH]c([C@@H]7C[C@@H]8CCC[C@@H]8N7C(=O)[C@@H](NC(=O)OC)[C@@H](C)OC)nc6c5)N4c4cc(F)c(N5CCCCC5)c(F)c4)ccc3[nH]2)C[C@@H]2CCC[C@@H]21)C(C)C [Example 10.2, methyl {(2S,3R)-1-[(2S,3aS,6aS)-2-{5-[(2R,5R)-1-[3,5-difluoro-4-(piperidin-1-yl)phenyl]-5-{2-[(2S,3aS,6aS)-1-{(2S)-2-[(methoxycarbonyl)amino]-3-methylbutanoyl}octahydrocyclopenta[b]pyrrol-2-yl]-1H-benzimidazol-5-yl}pyrrolidin-2-yl]-1H-benzimidazol-2-yl}hexahydrocyclopenta[b]pyrrol-1(2H)-yl]-3-methoxy-1-oxobutan-2-yl}carbamate]",< 0.1
10,"COC(=O)N[C@H](C(=O)N1CCC[C@H]1c1nc2cc([C@H]3CC[C@H](c4ccc5[nH]c([C@@H]6CCCN6C(=O)[C@@H](NC(=O)OC)C6CCOCC6)nc5c4)N3c3cc(F)c(N4CCC(c5ccccc5)CC4)c(F)c3)ccc2[nH]1)C(C)C [Example 11.1, methyl [(1S)-2-[(2S)-2-{5-[(2R,5R)-1-[3,5-difluoro-4-(4-phenylpiperidin-1-yl)phenyl]-5-{2-[(2S)-1-{(2S)-2-[(methoxycarbonyl)amino]-3-methylbutanoyl}pyrrolidin-2-yl]-1H-benzimidazol-5-yl}pyrrolidin-2-yl]-1H-benzimidazol-2-yl}pyrrolidin-1-yl]-2-oxo-1-(tetrahydro-2H-pyran-4-yl)ethyl]carbamate]",< 0.1
11,"COC(=O)N[C@H](C(=O)N1CCC[C@H]1c1nc2cc([C@H]3CC[C@H](c4ccc5[nH]c(C6CCCC6)nc5c4)N3c3cc(F)c(N4CCC(c5ccccc5)CC4)c(F)c3)ccc2[nH]1)C(C)C [Example 11.2, methyl {(2S)-1-[(2S)-2-(5-{(2R,5R)-5-(2-cyclopentyl-1H-benzimidazol-5-yl)-1-[3,5-difluoro-4-(4-phenylpiperidin-1-yl)phenyl]pyrrolidin-2-yl}-1H-benzimidazol-2-yl)pyrrolidin-1-yl]-3-methyl-1-oxobutan-2-yl}carbamate]",< 0.1
12,"COC(=O)N[C@H](C(=O)N1CCC[C@H]1c1ncc(-c2cccc(C3(c4cccc(-c5cnc([C@@H]6CCCN6C(=O)[C@@H](NC(=O)OC)C(C)C)[nH]5)c4)CN(c4ccc(C(C)(C)C)cc4)C3)c2)[nH]1)C(C)C [Example 12.1, methyl {(2S)-1-[(2S)-2-(5-{3-[1-(4-tert-butylphenyl)-3-(3-{2-[(2S)-1-{(2S)-2-[(methoxycarbonyl)amino]-3-methylbutanoyl}pyrrolidin-2-yl]-1H-imidazol-5-yl}phenyl)azetidin-3-yl]phenyl}-1H-imidazol-2-yl)pyrrolidin-1-yl]-3-methyl-1-oxobutan-2-yl}carbamate]",1 to 10
13,"COC(=O)N[C@H](C(=O)N1CCC[C@H]1c1ncc(-c2cccc(C3(c4cccc(-c5cnc([C@@H]6CCCN6C(=O)[C@@H](NC(=O)OC)C(C)C)[nH]5)c4)CN(c4ccccc4)C3)c2)[nH]1)C(C)C [Example 12.2, methyl {(2S)-1-[(2S)-2-(5-{3-[3-(3-{2-[(2S)-1-{(2S)-2-[(methoxycarbonyl)amino]-3-methylbutanoyl}pyrrolidin-2-yl]-1H-imidazol-5-yl}phenyl)-1-phenylazetidin-3-yl]phenyl}-1H-imidazol-2-yl)pyrrolidin-1-yl]-3-methyl-1-oxobutan-2-yl}carbamate]",1 to 10
